What was measured:
[1] = system: r-PQS4 (FEN1 rG4) (RNA, G4) AGGGGCCUGCGGGGACCUGGUGUGGGUGGAGUGGGGAC; assay: UV-Vis absorption shift; details: 100 mM KCl, 12 mM NaCl; 50 mM Tris-HCl pH 7.4; pre-folded RNA 5 μM; TMPyP4 printed as 100 mM
[2] = system: FAM-labeled FEN1 rG4 (RNA, G4) AGGGGCCUGCGGGGACCUGGUGUGGGUGGAGUGGGGAC; assay: native PAGE mobility (G4 unfolding); details: 100 mM KCl, 12 mM NaCl; 100 mM KCl in gel; 12% gel, 4 °C; RNA 5 μM; TMPyP4 unfolds rG4
[3] = system: r-PQS4 (FEN1 rG4) (RNA, G4) AGGGGCCUGCGGGGACCUGGUGUGGGUGGAGUGGGGAC; assay: CD titration (loss of 265 nm ellipticity); details: 100 mM KCl, 12 mM NaCl; 50 mM Tris-HCl pH 7.4; RNA 5 μM; TMPyP4 added before annealing (legend: pre-folded); disrupts G4

binding [1]: yes | binding [2]: yes | binding [3]: yes
Compound: C[n+]1ccc(-c2c3nc(c(-c4cc[n+](C)cc4)c4ccc([nH]4)c(-c4cc[n+](C)cc4)c4nc(c(-c5cc[n+](C)cc5)c5ccc2[nH]5)C=C4)C=C3)cc1
